Reference: patent US20030216479A1, “Novel compositions comprising 2,2-Bis (4-hydroxy-3-methylphenyl) heptane and uses thereof” (priority 2001, published 2003)
Converted amounts (≈) assume the structure as drawn.

Tests used:
[1] = test system: methicillin-resistant Staphylococcus aureus; experiment: Wound healing model (FIG. 2); format: in vivo; settings: mice, topical twice daily from 24 h, sampled 72 h post-infection
Experimental: (§1) FIG. 2. Efficacy of a composition comprising 2,2-Bis(4-hydroxy-3-methylphenyl)heptane in the wound healing model. A defined inoculum of approximately 10^5 CFU of methicillin-resistant Staphylococcus aureus in 20 μl culture medium was pipetted into a wound approximately 1 cm^2 created by removal of the epidermis from the shaved backs of mice. After 24 hours, the composition comprising 2,2-Bis(4-hydroxy-3-methylphenyl)heptane, placebo control or positive control ointment was applied twice daily. Approximately, seventy two hours post-infection, the wound was sampled and appropriate dilutions plated on nutritive agars for determination of microbial burden. The number of colony forming units (CFU) of methicillin-resistant Staphylococcus aureus per wound is shown.
(§2) The wound healing model, using methods generally known by those skilled in the art, is used to measure the efficacy of topically applied compounds in suitable vehicles against any bacteria, for example, Staphylococcus epidermis, Staphylococcus aureus, Streptococcus pyrogenes, Haemophilus influenzae, or mixtures thereof. By removing several epidermal layers by surgical procedure, a superficial wound of approximately 1 cm^2 was created. About 10 ^5 cfu/20 ul of culture medium of any bacteria, for example, S aureus, was applied to the wound. […]

M. catarrhalis = experiment: MIC antibacterial activity; format: cell-based; settings: Moraxella catarrhalis
S. pneumoniae = experiment: MIC antibacterial activity; format: cell-based; settings: Streptococcus pneumoniae
[2] = test system: Staphylococcus epidermidis; experiment: Wound healing model (FIG. 3); format: in vivo; settings: mice, topical twice daily from 24 h, sampled 72 h post-infection
Experimental: as §1, with “3.” for “2.”, “methicillin-sensitive” for “methicillin-resistant”, “epidermis” for “aureus”
as §2

S. pyogenes = experiment: MIC antibacterial activity; format: cell-based; settings: Streptococcus pyogenes
H. pylori = experiment: MIC antibacterial activity; format: cell-based; settings: Helicobacter pylori
H. influenzae = experiment: MIC antibacterial activity; format: cell-based; settings: Haemophilus influenzae
M. smegmatis = experiment: MIC antibacterial activity; format: cell-based; settings: Mycolicibacterium smegmatis
[3] = test system: methicillin-sensitive Staphylococcus aureus; experiment: Wound healing model (FIG. 1); format: in vivo; settings: methicillin-susceptible Staphylococcus aureus; mice; topical twice daily from 24 h; sampled 72 h post-infection
Experimental: as §1, with “1.” for “2.”, “methicillin-sensitive” for “methicillin-resistant”
as §2

S. epidermidis = experiment: MIC antibacterial activity; format: cell-based; settings: Staphylococcus epidermidis
C. diphtheriae = experiment: MIC antibacterial activity; format: cell-based; settings: Corynebacterium diphtheriae
E. faecalis = experiment: MIC antibacterial activity; format: cell-based; settings: Enterococcus faecalis

CCCCCC(C)(c1ccc(O)c(C)c1)c1ccc(O)c(C)c1 [2,2-Bis(4-hydroxy-3-methylphenyl)heptane]
reducing the population levels of pathogenic bacteria (CFU per wound) [1]: efficacious
MIC (M. catarrhalis): 2 µg/mL (≈ 6.4 µM)
MIC (S. pneumoniae): 6 µg/mL (≈ 19.2 µM)
reducing the population levels of pathogenic bacteria (CFU per wound) [2]: efficacious
MIC (S. pyogenes): 6 µg/mL (≈ 19.2 µM)
MIC (H. pylori): 16 µg/mL (≈ 51.2 µM)
MIC (H. influenzae): 6 µg/mL (≈ 19.2 µM)
MIC (M. smegmatis): 2 µg/mL (≈ 6.4 µM)
reducing the population levels of pathogenic bacteria (CFU per wound) [3]: efficacious
MIC (S. epidermidis): 2 µg/mL (≈ 6.4 µM)
melting point: 99 to 101 °C
MIC (C. diphtheriae): 2 µg/mL (≈ 6.4 µM)
MIC (E. faecalis): 2 µg/mL (≈ 6.4 µM)
